Laboratory results reported in patent publication US7745481B2, “Methods and compositions for the treatment and prevention of tumors, tumor-related disorders and cachexia” (Daiichi Sankyo Company, Limited, priority 1997, dated 2010).

Tests used:
[1] = tested on: mouse colon cancer Colon 26 cells; assay: Test of anticachexia effects in mice bearing mouse colon cancer Colon 26 cells; type: in vivo; conditions: Example 4, written in present tense, no data
Source text: The test animals were CDF1 mice (females, 8 weeks old). They were employed in groups of 10 for each test. 1×10^6 mouse colon cancer Colon 26 cells were transplanted subcutaneously into each animal.
The test compounds were Compounds No. 1-94 and 2-78 as shown above in Tables 1 and 2, respectively, and having the following formulae: […]
Each test compound was suspended in sterilized distilled water containing 0.5% w/v carboxymethyl cellulose (CMC) and administered orally once per day starting on the day of the tumor cell transplantation.
Each test animal was weighed immediately after tumor cell transplantation, and the weight (A g) was recorded. Each animal was then weighed on day 19 after tumor cell transplantation, and the weight (B g) was recorded. The weight gain on day 19 after tumor cell transplantation was calculated as B−A=Δgt for the test animals. The experiment was repeated with two control groups: the first control group (control group 1) was transplanted with the tumor cells but were not treated with any test compound, and the weight gain is reported as Δgc1; the second control group (control group 2) were not transplanted with the tumor cells and were not treated with any test compound, and the weight gain is reported as Δgc2. The body weight recovery rate was determined according to the following formula based on the weight gain on day 19 after tumor cell transplantation, and this value was used as an indicator of the anticachexia effect. Body weight recovery rate (%)=(Δgt−Δgc1)/(Δgc2−Δgc1)×100
(§1) The procedure described in Example 1 was repeated, but using the compound of formula (III) as the test compound, and comparing the weight gain (Δgt) of the test group of animals to which the compound of formula (III) had been administered with a control group (Δgc) into which the tumor cells had been transplanted but to which no anti-tumor compound had been administered. The test animals were female CDF1 mice, 16 weeks old. Also, the weight gain was measured 22 days after tumor transplantation. The average body weight of each group of animals immediately after tumor transplantation was 25 to 26 g.
as §1, with “Example 2” for “Example 1”, “formula (IV)” for “formula (III)”, “mice, 7” for “mice, 16”, “measured 15” for “measured 22”, “was 20” for “was 25”, “to 21” for “to 26”
Test compounds [the compounds of formula (V), (VI), (VII), (VIII), (IX), (X), (XI), (XII), (XIII) and (XIV)] are administered in the same manner as described in Example 2.

[2] = tested on: mouse colon cancer Colon 26 cells; assay: Life-prolonging activity test in mice bearing Colon 26 cells; type: in vivo; conditions: Example 7, animals of Examples 3 and 4; present tense, no data
Procedure: Observation of the mice used in Example 1 above was continued. The life-prolonging index was determined, based on the number of days each mouse survived, and this value was then used as an indicator of the life-prolonging effects of the test compounds.
It should be noted that, in the case of the group of mice treated with a test compound, oral administration of the respective compound once daily was continued on day 20 after tumor cell transplantation and beyond as well. Life-prolonging index (%)=(St/Sc−1)×100 • St: Median value of survival time (days) of the group of mice treated with a test compound • Sc: Median value of survival time (days) of the control group which were […].
The experiment reported in Example 5 was repeated with the animals used in Example 2. In the case of the group of mice treated with a test compound, oral administration of the respective compound once daily was continued on day 23 after tumor cell transplantation and beyond as well.
The experiment reported in Example 5 is repeated with the animals used in Examples 3 and 4.

Structure (SMILES) | Inhibition of mouse tumor cachexia and recovery of body weight loss (in words) [1] | Life-prolongation (in words) [2]
CS(=O)(=O)Nc1cc2occ(NC=O)c(=O)c2cc1Oc1ccccc1 [(IX), N-(3-formylamino-4-oxo-6-phenoxy-4H-1-benzopyran-7-yl)methanesulfonamide] | inhibit mouse tumor cachexia and recover loss of average of body weight | exhibit pronounced life-prolongation
Cc1cnc(NC(=O)C2=C(O)c3ccccc3S(=O)(=O)N2C)s1 [(VI), 4-hydroxy-2-methyl-N-(5-methylthiazol-2-yl)-2H-1,2-benzothiazine-3-carboxamide-1,1-dioxide] | inhibit mouse tumor cachexia and recover loss of average of body weight | exhibit pronounced life-prolongation
CS(=O)(=O)Nc1ccc([N+](=O)[O-])cc1Oc1ccccc1 [(VII), N-(4-Nitro-2-phenoxyphenyl)methanesulfonamide] | inhibit mouse tumor cachexia and recover loss of average of body weight | exhibit pronounced life-prolongation
Cc1nc(C2CCCCC2)c(-c2ccc(S(N)(=O)=O)c(F)c2)o1 [(VIII), 4-(4-cyclohexyl-2-methyloxazol-5-yl)-2-fluorobenzenesulfonamide] | inhibit mouse tumor cachexia and recover loss of average of body weight | exhibit pronounced life-prolongation
CCN1CC/C(=C\c2cc(C(C)(C)C)c(O)c(C(C)(C)C)c2)S1(=O)=O [(X), (E)-2-ethyl-5-(3,5-di-t-butyl-4-hydroxy)benzylidene-1,2-isothiazolidine-1,1-dioxide] | inhibit mouse tumor cachexia and recover loss of average of body weight | exhibit pronounced life-prolongation
CS(=O)(=O)c1ccc(C2=C(c3ccc(F)cc3)CCC2)cc1 [(XI), 1-(4-methanesulfonylphenyl)-2-(4-fluorophenyl)cyclopentene] | inhibit mouse tumor cachexia and recover loss of average of body weight | exhibit pronounced life-prolongation
CS(=O)(=O)c1ccc(C2=C(c3ccccc3)C(=O)OC2)cc1 [(XII), 3-phenyl-4-(4-methanesulfonylphenyl)-5H-furan-2-one] | inhibit mouse tumor cachexia and recover loss of average of body weight | exhibit pronounced life-prolongation
CS(=O)(=O)c1ccc(C2=C(c3cc(F)cc(F)c3)C(=O)CC2)cc1 [(XIII), 2-(3,5-difluorophenyl)-3-(4-methanesulfonylphenyl)-2-cyclopenten-1-one] | inhibit mouse tumor cachexia and recover loss of average of body weight | exhibit pronounced life-prolongation
Cc1onc(-c2ccccc2)c1-c1ccc(S(N)(=O)=O)cc1 [(XIV), 4-[5-methyl-3-phenylisoxazol-4-yl)benzenesulfonamide] | inhibit mouse tumor cachexia and recover loss of average of body weight | exhibit pronounced life-prolongation
